Results reported in the NIST ThermoML archive (doi:10.1007/s10765-011-1087-7).
± gives the expanded uncertainty stated by the source.

Test: xn = mol fraction of the nth substance listed
Conditions: 101 kPa, Liquid; for speed of sound: Pulse-echo method

CCCCCCC(C)O (centres undefined) [2-octanol] + Clc1ccccc1Cl
Conditions | mass density, 298.15 K [kg/m3] | mass density, 303.15 K [kg/m3] | speed of sound, 298.15 K [m/s] | speed of sound, 303.15 K [m/s] | viscosity, 298.15 K [mPa·s] | viscosity, 303.15 K [mPa·s]
x2 = 0.0721 | 841.72 ± 0.53 | 837.79 ± 0.54 | 1302 ± 1.3 | 1283.9 ± 1.3 | 5.353 ± 0.17 | 4.223 ± 0.14
x2 = 0.1124 | 856.33 ± 0.5 | 852.34 ± 0.51 | 1299.7 ± 1.3 | 1281.6 ± 1.3 | 4.742 ± 0.15 | 3.749 ± 0.12
x2 = 0.1868 | 884.26 ± 0.45 | 880.15 ± 0.46 | 1295.1 ± 1.3 | 1277.6 ± 1.3 | 3.839 ± 0.13 | 3.115 ± 0.11
x2 = 0.2615 | 913.56 ± 0.4 | 909.35 ± 0.4 | 1291 ± 1.3 | 1273.5 ± 1.3 | 3.163 ± 0.11 | 2.648 ± 0.09
x2 = 0.3223 | 938.42 ± 0.35 | 934.11 ± 0.36 | 1287.8 ± 1.3 | 1270.5 ± 1.3 | 2.721 ± 0.092 | 2.342 ± 0.08
x2 = 0.3758 | 961.09 ± 0.31 | 956.68 ± 0.32 | 1285.1 ± 1.3 | 1267.9 ± 1.3 | 2.414 ± 0.082 | 2.15 ± 0.074
x2 = 0.4495 | 993.6 ± 0.25 | 989.05 ± 0.26 | 1281.8 ± 1.3 | 1264.9 ± 1.3 | 2.086 ± 0.072 | 1.942 ± 0.067
x2 = 0.512 | 1022.45 ± 0.29 | 1017.76 ± 0.28 | 1279.1 ± 1.3 | 1262.2 ± 1.3 | 1.873 ± 0.065 | 1.772 ± 0.062
x2 = 0.5923 | 1061.35 ± 0.37 | 1056.48 ± 0.36 | 1276.1 ± 1.3 | 1259.6 ± 1.3 | 1.668 ± 0.059 | 1.613 ± 0.057
x2 = 0.6557 | 1093.66 ± 0.44 | 1088.63 ± 0.43 | 1274.5 ± 1.3 | 1258 ± 1.3 | 1.551 ± 0.055 | 1.473 ± 0.052
x2 = 0.7312 | 1134.18 ± 0.52 | 1128.95 ± 0.51 | 1273.2 ± 1.3 | 1257 ± 1.3 | 1.406 ± 0.05 | 1.34 ± 0.048
x2 = 0.797 | 1171.44 ± 0.6 | 1166.05 ± 0.59 | 1273 ± 1.3 | 1256.7 ± 1.3 | 1.293 ± 0.047 | 1.253 ± 0.045
x2 = 0.8672 | 1213.47 ± 0.7 | 1207.93 ± 0.68 | 1274.4 ± 1.3 | 1257.9 ± 1.3 | 1.283 ± 0.046 | 1.201 ± 0.044
x2 = 0.9481 | 1265.11 ± 0.81 | 1259.5 ± 0.8 | 1277.6 ± 1.3 | 1261.6 ± 1.3 | 1.308 ± 0.047 | 1.223 ± 0.044
